Laboratory results taken from US11247965B2 (VenatoRx Pharmaceuticals, Inc., priority 2017, dated 2022).

What was measured:
[1] = system: HBV replication in HepAD38 cells; experiment: Anti-HBV activity in HepAD38 cells, extracellular HBV DNA by QPCR; assay type: cell-based, HBV (genotype D, serotype ayw); conditions: Hepatitis B virus, HePAD38, 168 h, read-out: Anti-HBV EC50, HepAD38 cells, extracellular HBV DNA by QPCR, 7 days of incubation
Outline: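 Seven-day compound exposure (30 μM down to 10 nM, half-log steps) after tetracycline withdrawal induced HBV replication in HepAD38 cells. Extracellular viral DNA measured by QPCR (copies/mL via standard curve), normalised to DMSO wells; EC50 from 4-parameter non-linear regression.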

[2] = In vitro cytotoxicity, MTT cell viability assay in HepG2 cells; assay type: cell-based; conditions: human, Cytotoxicity CC50
Outline: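 Using MTT conversion as the viability measure, HepG2 cells were incubated with compounds for 7 days (30 μM to 1.0 nM). Absorbance at 492 nm was normalized to vehicle and fitted to give CC50.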

| SMILES | EC50 [1] | CC50 at 7 days [2] |
| --- | --- | --- |
| Cc1cc(NC(=O)c2ccc(F)c(C(F)(F)C(=O)N3[C@@H]4CC[C@H]3C[C@H](O)C4)c2)ccc1F [Example 163, 3-(1,1-difluoro-2-((1R,3s,5S)-3-hydroxy-8-azabicyclo[3.2.1]octan-8-yl)-2-oxoethyl)-4-fluoro-N-(4-fluoro-3-methylphenyl)benzamide] | < 5 µM | 5 to 30 µM |
| Cc1cc(NC(=O)c2ccc(F)c(C(F)(F)C(=O)N3CC4CNCC4C3)c2)ccc1F (stereo not drawn) [Example 283, 3-(1,1-difluoro-2-(hexahydropyrrolo[3,4-c]pyrrol-2(1H)-yl)-2-oxoethyl)-4-fluoro-N-(4-fluoro-3-methylphenyl)benzamide] | < 5 µM | 5 to 30 µM |
| O=C(Nc1ccc(F)c(F)c1)c1ccc(F)c(C(F)(F)C(=O)N2CCCC(O)C2)c1 (stereo not drawn) [Example 15, 3-(1,1-difluoro-2-(3-hydroxypiperidin-1-yl)-2-oxoethyl)-N-(3,4-difluorophenyl)-4-fluorobenzamide] | < 5 µM | 5 to 30 µM |
| O=C(Nc1ccc(F)c(F)c1)c1ccc(F)c(C(F)(F)C(=O)N[C@H]2CCOC2)c1 [Example 3, (S)-3-(1,1-difluoro-2-oxo-2-((tetrahydrofuran-3-yl)amino)ethyl)-N-(3,4-difluorophenyl)-4-fluorobenzamide] | 5 to 30 µM | 5 to 30 µM |
| O=C(Nc1ccnc(Cl)c1)c1ccc(F)c(C(F)(F)C(=O)N2CCC(O)C(F)(F)C2)c1 (stereo not drawn) [Example 195, N-(2-chloropyridin-4-yl)-3-(2-(3,3-difluoro-4-hydroxypiperidin-1-yl)-1,1-difluoro-2-oxoethyl)-4-fluorobenzamide] | < 5 µM | < 5 µM |
| Cc1cc(NC(=O)c2cc(C(F)(F)C(=O)NC(C)(C)CO)n(C)c2)ccc1F [Example 104, 5-(1,1-difluoro-2-((1-hydroxy-2-methylpropan-2-yl)amino)-2-oxoethyl)-N-(4-fluoro-3-methylphenyl)-1-methyl-1H-pyrrole-3-carboxamide] | < 5 µM | > 30 µM |
| Cn1ccc(C(=O)Nc2ccc(F)c(Cl)c2)c1C(F)(F)C(=O)N[C@@H]1CCOC1 [Example 143, (R)-N-(3-chloro-4-fluorophenyl)-2-(1,1-difluoro-2-oxo-2-((tetrahydrofuran-3-yl)amino)ethyl)-1-methyl-1H-pyrrole-3-carboxamide] | 5 to 30 µM | > 30 µM |
| Cc1cc(NC(=O)c2ccc(F)c(C(F)(F)C(=O)N3CCC(O)C(F)(F)C3)c2)cc(F)n1 (stereo not drawn) [Example 251, 3-(2-(3,3-difluoro-4-hydroxypiperidin-1-yl)-1,1-difluoro-2-oxoethyl)-4-fluoro-N-(2-fluoro-6-methylpyridin-4-yl)benzamide] | 5 to 30 µM | 5 to 30 µM |
| O=C(Nc1ccc(F)c(Br)c1)c1ccc(F)c(C(F)(F)C(=O)N2CCC(O)(CO)CC2)c1 [Example 190, N-(3-bromo-4-fluorophenyl)-3-(1,1-difluoro-2-(4-hydroxy-4-(hydroxymethyl)piperidin-1-yl)-2-oxoethyl)-4-fluorobenzamide] | < 5 µM | 5 to 30 µM |
| Cc1cc(NC(=O)c2ccc(F)c(C(F)(F)C(=O)N3[C@@H]4COC[C@H]3CC(O)C4)c2)ccc1F (stereo partly drawn) [Example 203, 3-(1,1-difluoro-2-((1R,5S)-7-hydroxy-3-oxa-9-azabicyclo[3.3.1]nonan-9-yl)-2-oxoethyl)-4-fluoro-N-(4-fluoro-3-methylphenyl)benzamide] | < 5 µM | 5 to 30 µM |
| O=C(Nc1ccc(F)c(Br)c1)c1ccc(F)c(C(F)(F)C(=O)N2[C@@H]3CC[C@H]2C[C@H](O)C3)c1 [Example 189, N-(3-bromo-4-fluorophenyl)-3-(1,1-difluoro-2-((1R,3s,5S)-3-hydroxy-8-azabicyclo[3.2.1]octan-8-yl)-2-oxoethyl)-4-fluorobenzamide] | < 5 µM | 5 to 30 µM |
| Cc1cc(NC(=O)c2cc(C(F)(F)C(=O)N3CCC(O)CC3)ccc2F)ccc1F [Example 90, 5-(1,1-difluoro-2-(4-hydroxypiperidin-1-yl)-2-oxoethyl)-2-fluoro-N-(4-fluoro-3-methylphenyl)benzamide] | < 5 µM | 5 to 30 µM |
| Cc1cc(NC(=O)c2cccc(C(F)(F)C(=O)N3CCC(O)CC3)c2Cl)ccc1F [Example 168, 2-chloro-3-(1,1-difluoro-2-(4-hydroxypiperidin-1-yl)-2-oxoethyl)-N-(4-fluoro-3-methylphenyl)benzamide] | < 5 µM | 5 to 30 µM |
| CCN(CCCO)C(=O)C(F)(F)c1cc(C(=O)Nc2ccc(F)c(F)c2)ccc1F [Example 46, N-(3,4-difluorophenyl)-3-(2-(ethyl(3-hydroxypropyl)amino)-1,1-difluoro-2-oxoethyl)-4-fluorobenzamide] | 5 to 30 µM | > 30 µM |
| O=C(Nc1ccc(F)c(F)c1)c1ccc(F)c(C(F)(F)C(=O)NCc2ccc(O)cc2)c1 [Example 65, 3-(1,1-difluoro-2-((4-hydroxybenzyl)amino)-2-oxoethyl)-N-(3,4-difluorophenyl)-4-fluorobenzamide] | 5 to 30 µM | 5 to 30 µM |
| Cc1cc(NC(=O)c2ccc(F)c(C(F)(F)C(=O)N3CCC(NC(=O)CC4CCOCC4)CC3)c2)ccc1F [Example 232, 3-(1,1-difluoro-2-oxo-2-(4-(2-(tetrahydro-2H-pyran-4-yl)acetamido)piperidin-1-yl)ethyl)-4-fluoro-N-(4-fluoro-3-methylphenyl)benzamide] | < 5 µM | 5 to 30 µM |
| O=C(Nc1ccc(F)c(Br)c1)c1ccc(Cl)c(C(F)(F)C(=O)N2CCC(O)CC2)c1 [Example 43, N-(3-bromo-4-fluorophenyl)-4-chloro-3-(1,1-difluoro-2-(4-hydroxypiperidin-1-yl)-2-oxoethyl)benzamide] | < 5 µM | 5 to 30 µM |
| Cc1cc(NC(=O)c2ccc(F)c(C(F)(F)C(=O)N3CCC(O)CC3)c2)cc(F)n1 [Example 160, 3-(1,1-difluoro-2-(4-hydroxypiperidin-1-yl)-2-oxoethyl)-4-fluoro-N-(2-fluoro-6-methylpyridin-4-yl)benzamide] | 5 to 30 µM | 5 to 30 µM |
| C=Cc1ccc(C(=O)Nc2ccc(F)c(C)c2)cc1C(F)(F)C(=O)N1CCC(O)CC1 [Example 115, 3-(1,1-difluoro-2-(4-hydroxypiperidin-1-yl)-2-oxoethyl)-N-(4-fluoro-3-methylphenyl)-4-vinylbenzamide] | < 5 µM | > 30 µM |
| Cc1cc(NC(=O)c2ccc(F)c(C(F)(F)C(=O)NC34CC5CC(CC3C5)C4)c2)ccc1F [Example 271, 3-(1,1-difluoro-2-(((2R,3as,5S,6as)-hexahydro-2,5-methanopentalen-3a(1H)-yl)amino)-2-oxoethyl)-4-fluoro-N-(4-fluoro-3-methylphenyl)benzamide] | 5 to 30 µM | 5 to 30 µM |
| N#Cc1cc(NC(=O)c2ccc(F)c(C(F)(F)C(=O)N3CCC(O)(CO)CC3)c2)ccc1F [Example 194, N-(3-cyano-4-fluorophenyl)-3-(1,1-difluoro-2-(4-hydroxy-4-(hydroxymethyl)piperidin-1-yl)-2-oxoethyl)-4-fluorobenzamide] | < 5 µM | 5 to 30 µM |
| O=C(Nc1ccc(F)c(Cl)c1)c1ccc(F)c(C(F)(F)C(=O)N2[C@@H]3CC[C@H]2C[C@H](O)C3)c1 [Example 171, N-(3-chloro-4-fluorophenyl)-3-(1,1-difluoro-2-((1R,3s,5S)-3-hydroxy-8-azabicyclo[3.2.1]octan-8-yl)-2-oxoethyl)-4-fluorobenzamide] | < 5 µM | 5 to 30 µM |
| Cc1cc(NC(=O)c2ccc(F)c(C(F)(F)C(=O)N3CCC(NC(=O)CN4CCC(O)CC4)C(C)(C)C3)c2)ccc1F (stereo not drawn) [Example 301, 3-(1,1-difluoro-2-(4-(2-(4-hydroxypiperidin-1-yl)acetamido)-3,3-dimethylpiperidin-1-yl)-2-oxoethyl)-4-fluoro-N-(4-fluoro-3-methylphenyl)benzamide] | < 5 µM | 5 to 30 µM |
| Cc1cc(NC(=O)c2ccc(F)c(C(F)(F)C(=O)N3[C@H](C)CN(S(C)(=O)=O)C[C@@H]3C)c2)ccc1F [Example 293, 3-(2-((2S,6R)-2,6-dimethyl-4-(methylsulfonyl)piperazin-1-yl)-1,1-difluoro-2-oxoethyl)-4-fluoro-N-(4-fluoro-3-methylphenyl)benzamide] | < 5 µM | 5 to 30 µM |
| Cc1cc(NC(=O)c2ccc(F)c(C(F)(F)C(=O)N[C@H]3CCCC[C@@H]3O)c2)ccc1F [Example 83, 3-(1,1-difluoro-2-(((1S,2S)-2-hydroxycyclohexyl)amino)-2-oxoethyl)-4-fluoro-N-(4-fluoro-3-methylphenyl)benzamide] | 5 to 30 µM | > 30 µM |
| Cc1cc(NC(=O)c2ccc(F)c(C(F)(F)C(=O)N3C4CC[C@@H]3C[C@@H](C(=O)NCCO)C4)c2)ccc1F [Example 258, (1R,3s,5S)-8-(2,2-difluoro-2-(2-fluoro-5-((4-fluoro-3-methylphenyl)carbamoyl)phenyl)acetyl)-N-(2-hydroxyethyl)-8-azabicyclo[3.2.1]octane-3-carboxamide] | < 5 µM | > 30 µM |
| Cn1ccc(C(=O)Nc2ccc(F)c(Cl)c2)c1C(F)(F)C(=O)NC1(C#N)CC1 [Example 147, N-(3-chloro-4-fluorophenyl)-2-(2-((1-cyanocyclopropyl)amino)-1,1-difluoro-2-oxoethyl)-1-methyl-1H-pyrrole-3-carboxamide] | 5 to 30 µM | > 30 µM |
